Test systems include NCI-H522 lung; NCI-H23 lung; TK-10 renal; OVCAR-8 ovarian; HCC-2998 colon; MDA-N; SK-MEL-28 melanoma; U251 CNS; SNB-75 CNS; RXF 393 renal; CAKI-1 renal; EKVX NSCLC; OVCAR-5 ovarian; ACHN renal; PC-3 prostate; NCI/ADR-RES ovarian; K-562 leukemia; HL-60(TB) leukemia; NCI-H226 lung; HT29 colon.
Holding throughout (assay): NCI tumour cell line growth inhibition, 48 h

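These data come from cells grown in 96-well plates and exposed to compound for 48 hours at five concentrations. TGI denotes the concentration required for complete inhibition of growth.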

Consider `CC1CCC2C(C(=O)O[C@H]3C4C=CO[C@@H](OC5OC(CO)C(O)C(O)C5O)C4[C@@]4(CO)O[C@@H]34)=CO[C@@H](OC3OC(CO)C(O)C(O)C3O)C12` (stereo not given in full), for which the TGI in the assay on NCI-H522 lung, in the assay on NCI-H23 lung, with TK-10 renal, in the assay with OVCAR-8 ovarian, in the assay on HCC-2998 colon and in the assay with MDA-N was above 10 µM in each case. In addition, the TGI with SK-MEL-28 melanoma, in the assay with U251 CNS, with SNB-75 CNS, in the assay with RXF 393 renal, in the assay with CAKI-1 renal and in the assay on EKVX NSCLC was above 10 µM each time. Besides, the TGI in the assay with OVCAR-5 ovarian, in the assay on ACHN renal, in the assay with PC-3 prostate, in the assay with NCI/ADR-RES ovarian, with K-562 leukemia and with HL-60(TB) leukemia was above 10 µM throughout. Also, the TGI with NCI-H226 lung and in the assay on HT29 colon was above 10 µM throughout.
On to `COc1ccccc1OC/C(N=Cc1cccnc1)=N/NC(=O)c1ccncc1`, for which the TGI in the assay on NCI-H522 lung, with NCI-H23 lung, with TK-10 renal, with OVCAR-8 ovarian, in the assay with HCC-2998 colon and with MDA-N was above 100 µM in each case. Besides, the TGI in the assay with SK-MEL-28 melanoma, in the assay on U251 CNS, in the assay with SNB-75 CNS, with RXF 393 renal, in the assay on CAKI-1 renal and with EKVX NSCLC was above 100 µM each time. The TGI in the assay on OVCAR-5 ovarian, in the assay on ACHN renal, in the assay on PC-3 prostate, in the assay on NCI/ADR-RES ovarian, with K-562 leukemia and in the assay on HL-60(TB) leukemia was above 100 µM each time. In addition, the TGI in the assay with NCI-H226 lung and in the assay on HT29 colon was above 100 µM throughout.
As to `N#Cc1ccccc1NC(=O)C(O)C(O)C(O)C(O)C=O` (stereo not given), the TGI with NCI-H522 lung, in the assay with NCI-H23 lung, with TK-10 renal, in the assay on OVCAR-8 ovarian, in the assay on HCC-2998 colon and with MDA-N was above 100 µM each time. The TGI with SK-MEL-28 melanoma, in the assay on U251 CNS, in the assay on SNB-75 CNS, with RXF 393 renal, with CAKI-1 renal and in the assay on EKVX NSCLC was above 100 µM in each case. Moreover, the TGI in the assay on OVCAR-5 ovarian, in the assay on ACHN renal, with PC-3 prostate, with NCI/ADR-RES ovarian, in the assay with K-562 leukemia and in the assay with HL-60(TB) leukemia was above 100 µM throughout. In addition, the TGI with NCI-H226 lung and with HT29 colon was above 100 µM each time.
Regarding `COC(=O)c1ccc(C)cc1C1CN=NC12Cc1c(C)cccc1C2=O` (stereo not given), the TGI in the assay with NCI-H522 lung was 97.4 µM; in the assay on NCI-H23 lung, above 100 µM; with TK-10 renal, above 100 µM; in the assay with OVCAR-8 ovarian, above 92.4 µM; in the assay with HCC-2998 colon it was above 100 µM; in the assay with MDA-N, above 100 µM. For the same molecule, the TGI in the assay on SK-MEL-28 melanoma, in the assay with U251 CNS, in the assay with SNB-75 CNS, in the assay on RXF 393 renal, with CAKI-1 renal and with EKVX NSCLC was above 100 µM in each case. For the same molecule, the TGI is above 100 µM with OVCAR-5 ovarian; above 100 µM in the assay on ACHN renal; above 100 µM with PC-3 prostate; 81.4 µM in the assay on NCI/ADR-RES ovarian; above 100 µM with K-562 leukemia; 71.1 µM with HL-60(TB) leukemia. The TGI in the assay with NCI-H226 lung is above 90.8 µM; with HT29 colon, above 100 µM.
As to `CC(Oc1ccc(Cl)cc1Cl)C(=O)NN1C(=O)CC(=O)NC1=S` (stereo not given), the TGI in the assay on NCI-H522 lung, with NCI-H23 lung, in the assay with TK-10 renal, in the assay with OVCAR-8 ovarian, in the assay with HCC-2998 colon and with MDA-N was above 100 µM throughout. The TGI with SK-MEL-28 melanoma, in the assay on U251 CNS, in the assay on SNB-75 CNS, in the assay on RXF 393 renal, in the assay with CAKI-1 renal and in the assay on EKVX NSCLC was above 100 µM throughout. In addition, the TGI in the assay with OVCAR-5 ovarian was above 100 µM; in the assay with ACHN renal, above 100 µM; in the assay on PC-3 prostate, above 100 µM; in the assay with NCI/ADR-RES ovarian, above 100 µM; in the assay on K-562 leukemia, above 100 µM; with HL-60(TB) leukemia, 91.8 µM. Also, the TGI in the assay on NCI-H226 lung and with HT29 colon was above 100 µM each time.
Consider `NC(N)=N/N=C/c1c(Cl)nc2n1CCS2`, for which the TGI in the assay on NCI-H522 lung, in the assay with NCI-H23 lung, in the assay with TK-10 renal, in the assay with OVCAR-8 ovarian, in the assay with HCC-2998 colon and in the assay with MDA-N was above 100 µM in each case. The TGI in the assay on SK-MEL-28 melanoma, in the assay on U251 CNS, in the assay on SNB-75 CNS, in the assay with RXF 393 renal, in the assay with CAKI-1 renal and in the assay with EKVX NSCLC was above 100 µM in each case. Moreover, the TGI in the assay with OVCAR-5 ovarian, in the assay with ACHN renal, with PC-3 prostate, with NCI/ADR-RES ovarian, with K-562 leukemia and with HL-60(TB) leukemia was above 100 µM in each case. Besides, the TGI in the assay with NCI-H226 lung and with HT29 colon was above 100 µM throughout.
On to `CC(C)(CO)CNc1nc(N)nc(Cl)c1C=O`, for which the TGI with NCI-H522 lung is 23.5 µM; with NCI-H23 lung it was above 100 µM; with TK-10 renal, above 100 µM; in the assay with OVCAR-8 ovarian, 68.1 µM; in the assay on HCC-2998 colon, 21.3 µM; in the assay on MDA-N, 72.2 µM. Also, the TGI was 83.8 µM in the assay on SK-MEL-28 melanoma; above 100 µM in the assay on U251 CNS; above 100 µM in the assay on SNB-75 CNS; 44.9 µM in the assay with RXF 393 renal; 52.6 µM with CAKI-1 renal; above 100 µM in the assay with EKVX NSCLC. For the same molecule, the TGI in the assay on OVCAR-5 ovarian is above 100 µM; with ACHN renal it was above 100 µM; in the assay with PC-3 prostate, 41.3 µM; in the assay with NCI/ADR-RES ovarian it was above 100 µM; with K-562 leukemia it was above 100 µM; in the assay with HL-60(TB) leukemia, 17.7 µM. In addition, the TGI in the assay with NCI-H226 lung and in the assay with HT29 colon was above 100 µM each time.
In the case of `CCCCCCCCCCCCCCCCNc1nc(=O)n(C2CC(O)C(COP(=O)(O)OC3CC(n4cc(F)c(=O)[nH]c4=O)OC3CO)O2)cc1F` (stereo not given), the TGI is 55.4 µM in the assay with NCI-H522 lung; 19.4 µM in the assay on NCI-H23 lung; above 100 µM in the assay on TK-10 renal; 44.2 µM with OVCAR-8 ovarian; 11 µM in the assay with HCC-2998 colon; above 100 µM in the assay on MDA-N. The TGI in the assay with SK-MEL-28 melanoma is above 68.7 µM; with U251 CNS, 32 µM; in the assay on SNB-75 CNS, above 68.8 µM; with RXF 393 renal, 30.3 µM; in the assay on CAKI-1 renal it was above 100 µM; with EKVX NSCLC it was 99.3 µM. For the same molecule, the TGI is above 100 µM with OVCAR-5 ovarian; above 100 µM in the assay on ACHN renal; above 78.6 µM in the assay with PC-3 prostate; 46 µM with NCI/ADR-RES ovarian; 24.1 µM in the assay with K-562 leukemia; 19 µM in the assay on HL-60(TB) leukemia. Moreover, the TGI in the assay with NCI-H226 lung was above 100 µM; with HT29 colon it was 26.5 µM.

These data come from PubChem BioAssay (NCI).
